The assay addresses cAMP-dependent protein kinase (PKA) (Homo sapiens, UniProt P22694+P17612+P22612). The assay can be described thus: Inhibition of protein kinase A. Format: protein assay.
Turning to `O=C1NC(=O)c2c1c1c3ccccc3[nH]c1c1[nH]c3ccccc3c21` [STAUROSPORINE AGLYCON], the IC50 turned out to be 60 µM.
For the molecule `O=C1NC(=O)c2c1c1c3cccc(Cl)c3[nH]c1c1[nH]c3c(Cl)cccc3c21`, the IC50 is > 100 µM.
For the molecule `O=C1NC(O)c2c1c1c3ccccc3[nH]c1c1[nH]c3ccccc3c21` (centres undefined), the IC50 worked out at 34 µM.
The molecule `O=C1NCc2c1c1c3ccccc3[nH]c1c1[nH]c3ccccc3c21` [STAUROSPORINONE] registered an IC50 of 25.7 µM.

Values taken from ChEMBL document CHEMBL1126419 (Bioorg Med Chem Lett, 1992).
